Read-outs that look alike come from different tables or passages of the source.
What was measured:
sows [1] = conditions: for NBA (Number Born Alive) / TNB (Total Number Born) / Litter growth, 24 hour to 3 days / Litter growth, Start to 24 hour / Litter growth, Start to 3 days / Piglet weight, 24 hour / Piglet weight, 3 days / Piglet weight, Start / Birth weight: LS Means ± SEM; for NBD (Number Born Death), stillborn piglets / Mortality: log transformed, back-transformed to absolute values; for Litter weight, 24 hour / Litter weight, 3 days / Litter weight, Start: corrected for mortality and cross fostering; for Birth weight: litter
Procedure: A field trial was conducted on a commercial farm in Denmark with 650 highly productive Danbred sows (Landrace x Yorkshire) inseminated with a pure line Duroc boar, between Nov. 17, 2014 and Jan. 16, 2015. A total of 139 sows (total number before analyzes) were included in the trial, divided over 3 subsequent sow groups farrowing over a time span of 6 weeks. For all analyzes SAS software (version 9.3, SAS Institute Inc., Cary, N.C.) was used. Sows received a dry meal transition feed (from gestation to lactation), fed from day 111 of gestation till day 5 of lactation, and were allocated to one of the two treatment groups based on parity. […] The total amount of calcium was equal between both experimental treatments. Number born alive (NBA), stillborn and mummies, litter birth weight, as well as back fat of the sows before farrowing (day 110 of gestation) and at weaning (day 24 of lactation) were measured. Litter weights at 24 hours and 3 days after birth were measured as well. On day 3 after birth blood samples were taken from 6 piglets (2 biggest, 2 medium and 2 smallest) from 65 litters of their tails when they were cut and analyzed on immunoglobulin G (IgG) concentration. Placentas of the sows were collected after the farrowing process was finished, stored in freezers and afterwards scored on redness for an indication of the vascularization of these placentas.

sows [2] = conditions: 0.1% calcium nitrate in phase 1 diet, 19 May 2014 till 16 Aug. 2014
Procedure: 600 sows and all sows were fed two diets over the test period. The first diet (phase 1) was fed from approximately 5 days pre-farrowing until 5 days post-farrowing. The second diet (phase 2) was fed from day 5 post-farrowing until weaning.
The following measurements were recorded as shown in TABLE 2A: (i) gestation length; (ii) sow reproductive performance was recorded right after farrowing (number of piglets born total, alive, stillborn); (iii) piglet; (iv) total piglets weaned; (v) weaning weights; and (vi) piglets per sow per year; and […].

sows [3] = conditions: for Probability of piglet Livability: 1-((stillborn + died pre weaning)/total pigs after cross fostering)
Source text: During lactation, sows were fed either the positive control or negative control standard lactation diet according to a step-up feeding schedule. Until farrowing the sows were fed a fixed amount of either the positive or negative controls of the standard lactation diet twice a day. After farrowing the amount of feed either the positive or negative controls of the standard lactation diet fed was increased gradually till a maximum of 8 kg/sow per day. The amount of which could be adjusted based on the appetite of the sow. Piglets were fed Ad libitum (no milk was provided other than from the sow a commercial creep feed (meal, dry) from day 4-16 of age and a pelleted commercial prestarter from day 16 till weaning. In total, 150 sows were allocated over the three rooms based on parity. Within 2 days after farrowing, litters were standardized to 13-14 piglets per sow.
The following measurements were recorded as shown in TABLE 1C: (i) sow weight and backfat thickness when entering the farrowing room (day 111 of gestation) and at weaning (22 days post farrowing); (ii) sow reproductive performance was recorded right after farrowing (number of piglets born total, alive, stillborn, mummified); (iii) piglets weights were recorded at birth, day 5 after birth and at weaning; (iv) creep feed intake of piglets between day 4 and weaning was recorded; (v) number of piglets alive at day 4 and at weaning were registered; (vi) when piglets died, the reason for dying was also registered; and (vii) interventions during the birth process (e.g. the use of planate, oxytocin and birth assistance).

[4] = 0.1% Bolifor CNF in transition feed, listed as Bolifor CNF ®
[5] = 0.1% Bolifor CNF in transition feed, listed as Bolifor CNF®
[6] = 0.1% Bolifor CNF, listed as Bolifor CNF ®
[7] = 0.1% Bolifor CNF, listed as Bolifor CNF®
[8] = 0.1% Bolifor CNF in lactation diet, means
[9] = 0.1% Bolifor CNF, induction of sows as covariable
[10] = 0.1% Bolifor CNF, induction of sows as covariable, listed as calcium nitrate
[11] = piglets, 0.1% Bolifor CNF, corrected for lactation length

O=[N+]([O-])[O-].O=[N+]([O-])[O-].[Ca+2] [Bolifor CNF, calcium nitrate]
NBA (Number Born Alive) (sows [1]; [4]): 16.84 ± 0.170
TNB (Total Number Born) (sows [1]; [4]): 17.90 ± 0.460
NBA (Number Born Alive) (sows [1]; [5]): 16.84
TNB (Total Number Born) (sows [1]; [5]): did not differ
NBD (Number Born Death), stillborn piglets (sows [1]; [4]): 1.32 ± 0.006
NBD (Number Born Death), stillborn piglets (sows [1]; [5]): 1.32
Litter growth, 24 hour to 3 days (sows [1]; [6]): 1.80 ± 0.140 kg/day
Litter growth, Start to 24 hour (sows [1]; [6]): 1.21 ± 0.161 kg/day
Litter growth, Start to 3 days (sows [1]; [6]): 3.03 ± 0.234 kg/day
Piglet weight, 24 hour (sows [1]; [6]): 1.41 ± 0.012 kg
Piglet weight, 3 days (sows [1]; [6]): 1.55 ± 0.018 kg
Piglet weight, Start (sows [1]; [6]): 1.32 ± 0.046 kg
Litter growth, 24 hour to 3 days (sows [1]; [7]): no differences were found
Litter growth, Start to 24 hour (sows [1]; [7]): no differences were found
Litter growth, Start to 3 days (sows [1]; [7]): no differences were found
Piglet weight, 24 hour (sows [1]; [7]): did not differ
Piglet weight, 3 days (sows [1]; [7]): did not differ
Piglet weight, Start (sows [1]; [7]): did not differ
Colostrum, CI per piglet (sows [1]; 0.1% Bolifor CNF, calculated colostrum intake): 222.02 g
Colostrum, CI (Colostrum Intake) (sows [1]; 0.1% Bolifor CNF, calculated colostrum intake, listed as Bolifor CNF ®): 2858.60 g
Colostrum, CI (Colostrum Intake) (sows [1]; 0.1% Bolifor CNF, calculated colostrum intake, listed as Bolifor CNF®): No differences were found
Litter weight, 24 hour (sows [1]; [6]): 18.14 kg
Litter weight, 3 days (sows [1]; [6]): 19.93 kg
Litter weight, Start (sows [1]; [6]): 16.70 kg
Litter weight, 24 hour (sows [1]; [7]): did not differ
Litter weight, 3 days (sows [1]; [7]): did not differ
Litter weight, Start (sows [1]; [7]): did not differ
Piglet growth, 24 hour to 3 days (sows [1]; [6]): 0.140 kg/day
Piglet growth, Start 3 days (sows [1]; [6]): 0.235 kg/day
Piglet growth, Start to 24 hour (sows [1]; [6]): 0.093 kg/day
Piglet growth, 24 hour to 3 days (sows [1]; [7]): no differences were found
Piglet growth, Start 3 days (sows [1]; [7]): no differences were found
Piglet growth, Start to 24 hour (sows [1]; [7]): no differences were found
Mortality (sows [1]; [6]): 1.87
Mortality (sows [1]; [7]): did not differ
Birth weight (sows [1]; [4]): 21.70 ± 0.614 kg
Birth weight (sows [1]; [5]): did not differ
NBD, highest parity group (sows [1]; parities >4, 0.1% Bolifor CNF in transition feed): 1.21
Born Alive (sows [2]): 15.8
Mortality (sows [2]): 10.5%
Piglets/sow/year (sows [2]): 34.1
Pregnancy rate (sows [2]): 94.5%
Total born (sows [2]): 17.3
Weaning weight (sows [2]): 6.7 kg
Piglet Livability (sows [2]; listed as Calcium nitrate): 82.7%
Piglets Weaned (sows [2]; listed as Calcium nitrate): 14.3
Still Born (sows [2]; listed as Calcium nitrate): 1.5
Piglet Livability (sows [2]; listed as calcium nitrate): increase
Piglets Weaned (sows [2]; listed as calcium nitrate): increase
Still Born (sows [2]; listed as calcium nitrate): decrease
Probability Born Mummified (sows [3]; 0.1% Bolifor CNF in lactation diet): 2.3%
Total born (sows [3]; [8]): 16.3
Total born alive (sows [3]; [8]): 15.3
Total still born (sows [3]; [8]): 1.0
Total weaned (sows [3]; [8]): 13.1
Probability of piglet Livability (sows [3]; 0.1% Bolifor CNF): 89.8
Probability of piglet Livability (sows [3]; 0.1% Bolifor CNF, listed as calcium nitrate): numerically higher
Probability Still Born (sows [3]; [9]): 6.2%
Probability born alive (sows [3]; [9]): 93.8%
Probability of piglet mortality from cross fostering (day 4-5)-weaning (sows [3]; [9]): 2.0%
Probability of piglets alive at day 4-5 (sows [3]; [9]): 92.5%
Probability Still Born (sows [3]; [10]): numerically lower
Probability born alive (sows [3]; [10]): numerically higher
ADG 0-5 (sows [3]; piglets, 0.1% Bolifor CNF): 157 g/day
ADG 5-weaning (sows [3]; piglets, 0.1% Bolifor CNF): 245.3 g/day
Average birth weight (sows [3]; piglets, 0.1% Bolifor CNF): 1.36 kg
Average weight post fostering (sows [3]; piglets, 0.1% Bolifor CNF): 2.30 kg
Litter weight Pre fostering (sows [3]; piglets, 0.1% Bolifor CNF): 19.8 kg
Litter weight post fostering (sows [3]; piglets, 0.1% Bolifor CNF, calculated, not measured): 30.8 kg
Average weight at weaning (sows [3]; [11]): 6.71 kg
Litter weight at weaning (sows [3]; [11]): 82.0 kg
Litter weight at weaning (sows [3]; piglets, 0.1% Bolifor CNF, corrected for lactation length, listed as calcium nitrate): numerically higher
